Laboratory results published in US11622974B2, “Prebiotic composition and its use” (CP KELCO U.S., INC., priority 2019, dated 2023).

Assays:
Bifidobacterium = assay: i-screen in vitro fermentation of fecal microbiota pool: Bifidobacterium growth; type: cell-based; conditions: second i-screen, relative to untreated control (1.0)
Protocol: (§1) Samples containing 8 mg/mL (0.8% w/v) of SPS or SOS were diluted by a factor of two to provide samples containing 4 mg/mL (0.4% w/v) of SPS or SOS. The effect of Sample Nos. 1-12 at a concentration of 4 mg/mL on a panel of over twenty-five gut microbiota was assessed after 24 h of fermentation using an in vitro fermentation screening platform (“i-screen”), as described by Fehlbaum (2018). Specifically, a standard fecal microbiota pool derived from 5-6 healthy adults (health based on exclusion criteria) was used that was pre-cultured overnight from a frozen stock. […] A number of sphingan samples and comparative samples—plant extracts (e.g., pectins, pectin oligosaccharides, and carrageenans) and biogums (e.g., xanthan and xanthan oligosaccharides)) were analyzed at a concentration of about 4 mg/mL, which corresponds to a dose of about 4 g/day. […]
(§2) Shifts in microbiota composition were determined by next generation sequencing, which recognizes bacteria at the genus level and in many cases (but not all) at the species level. To have a uniform distribution of samples in the sequencing pool total bacterial load was established by a quantitative Polymerase Chain Reaction (“PCR”) using a universal primer-probe set. […] Next, amplicons were gel-purified, quantified and pooled. […]
(§3) The standard controls were carried out in triplicate. […] The effect was determined relative to an untreated control. […]

Blautia = assay: i-screen in vitro fermentation of fecal microbiota pool: Blautia growth; type: cell-based; conditions: second i-screen, pool H1, relative to untreated control (1.0)
Protocol: as §1, §2, §3

Faecalibacterium = assay: i-screen in vitro fermentation of fecal microbiota pool: Faecalibacterium growth; type: cell-based; conditions: second i-screen, pool H1, relative to untreated control (1.0)
Protocol: as §1, §2, §3

Parabacteroides = assay: i-screen in vitro fermentation of fecal microbiota pool: Parabacteroides growth; type: cell-based; conditions: second i-screen, pool H1, relative to untreated control (1.0)
Protocol: as §1, §2, §3

[1] = test system: Lachnospiraceae unclassified; assay: i-screen in vitro fermentation: Lachnospiraceae unclassified growth; type: cell-based; conditions: second i-screen, relative to untreated control (1.0)
Protocol: as §1, §2, §3

Clostridium XlVa = assay: i-screen in vitro fermentation: Clostridium XlVa growth; type: cell-based; conditions: second i-screen, relative to untreated control (1.0)
Protocol: The effect of Sample Nos. 1-12 at a concentration of 4 mg/mL on a panel of over twenty-five gut microbiota was assessed after 24 h of fermentation using an in vitro fermentation screening platform (“i-screen”), as described by Fehlbaum (2018). Specifically, a standard fecal microbiota pool derived from 5-6 healthy adults (health based on exclusion criteria) was used that was pre-cultured overnight from a frozen stock. This was followed by dilution in microtiter plates in which the samples were added and subsequently anaerobically incubated for 24 h at 37° C. After incubation, culture samples were harvested and processed for further analysis. […] A number of sphingan samples and comparative samples—plant extracts (e.g., pectins, pectin oligosaccharides, and carrageenans) and biogums (e.g., xanthan and xanthan oligosaccharides)) were analyzed at a concentration of about 4 mg/mL, which corresponds to a dose of about 4 g/day.

Coprococcus = assay: i-screen in vitro fermentation: Coprococcus growth; type: cell-based; conditions: second i-screen, relative to untreated control (1.0)
Protocol: as §1, §2, §3

Phascolarctobacterium = assay: i-screen in vitro fermentation: Phascolarctobacterium growth; type: cell-based; conditions: second i-screen, relative to untreated control (1.0)
Protocol: as §1, §2, §3

Butyricicoccus = assay: i-screen in vitro fermentation: Butyricicoccus growth; type: cell-based; conditions: second i-screen, relative to untreated control (1.0)
Protocol: as §1, §2, §3

NF-κB = assay: Caco-2/THP1-Blue co-culture: NF-κB activity after LPS; type: cell-based, human; conditions: control tests, versus LPS+
Text: (§4) Samples collected from the SHIME experiment described above were used to evaluate in vitro the effect of the fermented products on intestinal epithelial barrier function and immune markers. These include samples from the proximal and distal colon reactors of three different donors, collected at the end of the control and treatment periods.
THP1-Blue™ (InvivoGen) cells were maintained in Roswell Park Memorial Institute (RPMI) 1640 medium containing glucose and glutamine, supplemented with HEPES, sodium pyruvate and 10% (v/v) H1-FBS. THP1-Blue™ are THP1 human monocytes stably transfected with a reporter construct expressing a secreted alkaline phosphatase (SEAP) gene under the control of a promoter inducible by the transcription factor nuclear factor kappa B (NF-κB). Upon TLR activation (e.g., by lipopolysaccharide (LPS); isolated from Gram-negative bacteria), NF-κB becomes activated and induces the expression and secretion of SEAP. SEAP activity can then be measured in the supernatants by using the QUANTI-Blue reagent (InvivoGen). […]
Briefly, the apical compartment (containing the Caco-2 cells) was filled with sterile-filtered (0.22 μm) colonic SHIME suspensions or with different concentrations of live bacteria. […] Cells were treated for 24 h, after which the TEER was measured (=24 h time point). […]

IL-1β = assay: Caco-2/THP1-Blue co-culture: IL-1β secretion after LPS; type: cell-based, human; conditions: control tests, versus LPS+
Text: as §4
(§5) Briefly, the apical compartment (containing the Caco-2 cells) was filled with sterile-filtered (0.22 μm) colonic SHIME suspensions or with different concentrations of live bacteria. Cells were also treated apically with sodium butyrate (NaB) (Sigma-Aldrich) as positive control. The basolateral compartment (containing the THP1-Blue™ cells) was filled with Caco-2 complete medium. Cells were also exposed to Caco-2 complete medium in both chambers as control. Cells were treated for 24 h, after which the TEER was measured (=24 h time point). After subtracting the TEER of the empty insert, all 24 h values were normalized to its own 0 h value (to account for the differences in initial TEER of the different inserts) and are presented as percentage of initial value. Then, the basolateral supernatant was discarded, and cells were stimulated at the basolateral side with Caco-2 complete medium containing ultrapure LPS (Escherichia coli K12, InvivoGen). […]

[2] = test system: Caco-2/THP1-Blue™ co-cultures; assay: Caco-2/THP1-Blue co-culture: transepithelial electrical resistance (TEER); type: cell-based, human; conditions: control tests, apical treatment 24 h, versus complete medium
Text: To mimic the interface between host and gut microbiome, several in vitro models have been developed in the past years which include the use of intestinal epithelial-like cells and immune cells of human origin. The model used herein was a co-culture model of intestinal epithelial-like cells (Caco-2 cells) and human monocytes/macrophages (THP1 cells). (See FIG. 14; see also Possemiers (2013) Satsu (2006).) Caco-2, when seeded on suitable supports, spontaneously differentiate into mature enterocyte-like cells, characterized by polarization, presence of villi, formation of domes, presence of tight junctions and vectorial transport and expression of apical brush-border enzymes (reviewed by Sambuy (2005)). THP1 monocytes, isolated from a human patient with acute leukemia, differentiate into macrophage-like cells upon phorbol 12-myristate 13-acetate (PMA) treatment. […] The ‘tightness’ of these junctions can be measured as transepithelial electrical resistance (TEER), with a high TEER corresponding to a tighter barrier. Upon loss of barrier function, the paracellular transport (in-between cells) of fluids increases, which can be measured as a reduction of the TEER. […] This is possibly due to cytokine-mediated disruption of tight junctions and can be measured as a decrease in TEER. […]

IL-6 = assay: Caco-2/THP1-Blue co-culture: IL-6 secretion after LPS; type: cell-based, human; conditions: control tests, versus LPS+
Text: as §4, §5

IL-10 = assay: Caco-2/THP1-Blue co-culture: IL-10 secretion after LPS; type: cell-based, human; conditions: control tests, versus LPS+
Text: as §4, §5

TNF-α = assay: Caco-2/THP1-Blue co-culture: TNF-α secretion after LPS; type: cell-based, human; conditions: control tests, versus LPS+
Text: as §4, §5

IL-8 = assay: Caco-2/THP1-Blue co-culture: IL-8 secretion after LPS; type: cell-based, human; conditions: control tests, versus LPS+
Text: as §4, §5

CXCL10 = assay: Caco-2/THP1-Blue co-culture: CXCL10 secretion after LPS; type: cell-based, human; conditions: control tests, versus LPS+
Text: as §4, §5

MCP-1 = assay: Caco-2/THP1-Blue co-culture: MCP-1 secretion after LPS; type: cell-based, human; conditions: control tests, versus LPS+
Text: as §4, §5

Structure (SMILES)	Bifid. growth (Bifidobacterium)	Blaut. growth (Blautia)	Faecal. growth (Faecalibacterium)	Para. growth (Parabacteroides)	Lachn. U. growth [1]	ClX1Va growth (Clostridium XlVa)	Copro. growth (Coprococcus)	Phasc. growth (Phascolarctobacterium)	Butyr. growth (Butyricicoccus)	LPS-induced NF-κB transcriptional activity (NF-κB)	LPS-induced IL-1β expression (IL-1β)	TEER of the Caco-2 monolayer [2]	LPS-induced IL-6 secretion (IL-6)	LPS-induced IL-10 secretion (IL-10)	LPS-induced TNF-α (TNF-α)	LPS-induced IL-8 (IL-8)	LPS-induced CXCL10 (CXCL10)	LPS-induced MCP-1 (MCP-1)
CC1(C)S[C@@H]2[C@H](NC(=O)[C@H](N)c3ccc(O)cc3)C(=O)N2[C@H]1C(=O)O [CS20, Amoxicillin]	0.24	0.23	0.37	12.10	0.04	0.03	0.04	0.08	0.00									
C[C@]12CCC(=O)C=C1CC[C@@H]1[C@@H]2[C@@H](O)C[C@@]2(C)[C@H]1CC[C@]2(O)C(=O)CO [HC, hydrocortisone]										inhibiting	did not reduce							
CCCC(=O)[O-].[Na+] [NaB, sodium butyrate]										increased	did not reduce	maintain the TEER	selectively increased	selectively increased	selectively inhibited	selectively inhibited	selectively inhibited	selectively inhibited
